ChEMBL document CHEMBL1201862, “PubChem BioAssay data set” (2004)
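Protocol summary: plate cells (96-well), add compound at 5 concentrations, incubate 48 h, interpolate endpoints linearly. GI50 marks 50% less growth.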 Activity calls are given as the source filed them. No stated cut-off is given here; in the data, active = GI50 up to about 1.1 µM and inactive = higher.

Columns and labels:
Test in all cases: NCI-60 cell line screen, 48 h
[1] = tested on: K562
[2] = tested on: HCC 2998
[3] = tested on: ACHN
[4] = tested on: MDA-MB-435
[5] = tested on: Malme-3M
[6] = tested on: NCI-H226
[7] = tested on: HOP-62
[8] = tested on: MDA-N
[9] = tested on: SR
[10] = tested on: SW-620
[11] = tested on: SK-MEL-5
[12] = tested on: HT-29
[13] = tested on: OVCAR-5
[14] = tested on: MDA-MB-231
[15] = tested on: A498
[16] = tested on: SK-MEL-28
[17] = tested on: RPMI-8226
[18] = tested on: RXF 393
[19] = tested on: UACC-62
[20] = tested on: OVCAR-4

Measured: GI50

CCOC(=O)Nc1ccc(C)c(NC(=O)OCC)c1
inactive: [1] > 100 µM | [2] 56.2 µM | [3] > 100 µM | [4] > 100 µM | [5] > 100 µM | [6] > 100 µM | [7] > 100 µM | [8] > 100 µM | [9] > 100 µM | [10] > 100 µM | [11] > 100 µM | [12] > 100 µM | [13] > 100 µM | [14] > 100 µM | [15] > 100 µM | [16] > 100 µM | [17] > 100 µM | [18] > 100 µM | [19] > 100 µM

CC(N/N=N/c1ccc(-c2nc3ccccc3[nH]2)cc1)C(=O)O (centres undefined)
inactive: [1] 7.16 µM | [3] 40.3 µM | [4] 32.7 µM | [5] 26.3 µM | [6] > 100 µM | [7] 45.2 µM | [8] 27.5 µM | [9] 2.4 µM | [10] 29.8 µM | [11] 18.8 µM | [12] 29.5 µM | [13] > 100 µM | [14] 33.7 µM | [20] 37.6 µM | [15] > 100 µM | [16] > 100 µM | [17] 1.91 µM | [18] 34.1 µM

CCOC(=O)CSc1nc2ccccc2c(=O)n1N
inactive: [1] > 100 µM | [2] 37.6 µM | [3] > 100 µM | [4] > 100 µM | [5] > 100 µM | [6] > 100 µM | [8] > 100 µM | [9] > 100 µM | [10] > 100 µM | [11] > 100 µM | [12] 68.4 µM | [13] > 100 µM | [14] > 100 µM | [20] > 100 µM | [15] > 100 µM | [16] > 100 µM | [17] > 100 µM | [18] > 100 µM | [19] > 100 µM

O=C(/C=C/c1cccs1)c1ccc(Cl)s1
inactive: [1] 31.3 µM | [2] 18.7 µM | [3] > 100 µM | [4] 21.9 µM | [5] > 100 µM | [6] 28.7 µM | [7] > 100 µM | [8] > 10 µM | [9] 25.2 µM | [10] 23.3 µM | [11] 50.7 µM | [12] > 10 µM | [13] 54.3 µM | [14] 40.3 µM | [20] 48.5 µM | [15] 55.7 µM | [16] 29.2 µM | [17] 17.5 µM | [19] 45 µM

O=C(CCC(=O)c1ccsc1)c1ccsc1
inactive: [2] > 100 µM | [3] > 100 µM | [4] > 100 µM | [5] > 100 µM | [6] > 100 µM | [7] > 100 µM | [8] > 100 µM | [9] > 100 µM | [10] > 100 µM | [11] > 100 µM | [13] > 100 µM | [14] > 100 µM | [20] > 100 µM | [15] > 100 µM | [16] > 100 µM | [17] > 100 µM | [18] > 100 µM | [19] > 100 µM

c1sc(NC2=NCCO2)c2c1CCCC2
inactive: [1] > 100 µM | [2] > 100 µM | [3] > 100 µM | [4] > 100 µM | [5] > 100 µM | [6] > 100 µM | [8] > 100 µM | [9] > 100 µM | [10] > 100 µM | [11] > 100 µM | [12] > 100 µM | [13] > 100 µM | [14] > 100 µM | [20] > 100 µM | [15] > 100 µM | [16] > 100 µM | [17] > 100 µM | [18] > 100 µM | [19] > 100 µM

O=c1[nH]c(=O)n(C2CC(O)C(CO)O2)cc1/N=N/NCCCc1ccccc1 (centres undefined)
inactive: [2] > 100 µM | [3] > 100 µM | [4] > 100 µM | [5] > 100 µM | [6] > 100 µM | [7] > 100 µM | [8] > 100 µM | [9] > 100 µM | [11] > 100 µM | [12] > 100 µM | [13] > 100 µM | [14] > 100 µM | [20] > 100 µM | [15] > 100 µM | [16] > 100 µM | [18] > 100 µM | [19] > 100 µM

CC1(C)CC2=NC(SSC3=C(C#N)C(c4ccc(Br)cc4)C4=C(O)CC(C)(C)CC4=N3)=C(C#N)C(c3ccc(Br)cc3)C2=C(O)C1 (centres undefined)
inactive: [1] 75 µM | [3] > 100 µM | [4] > 100 µM | [5] > 100 µM | [6] > 100 µM | [7] > 100 µM | [8] > 100 µM | [9] 48.3 µM | [10] > 100 µM | [11] > 100 µM | [12] > 100 µM | [13] > 100 µM | [14] > 100 µM | [20] > 100 µM | [15] > 100 µM | [16] > 100 µM | [17] 67.8 µM | [18] > 100 µM | [19] > 100 µM

CCOC(=O)C1=C(C)C2C=C(c3cccs3)CC(c3ccc(Cl)cc3)=C2OC1=O (centres undefined)
inactive: [1] 5.05 µM | [2] 22.5 µM | [3] 32.7 µM | [4] 42.4 µM | [6] 21 µM | [7] 86.1 µM | [8] 37.9 µM | [9] 15.5 µM | [10] 65 µM | [11] 27 µM | [12] 30 µM | [13] > 100 µM | [14] 92.3 µM | [20] 19.7 µM | [15] 83.2 µM | [16] 94.4 µM | [17] 7.59 µM | [18] 84.5 µM | [19] 45.8 µM

CC(c1ccccc1)n1c2ccccc2c2c(N)ncnc21 (centres undefined)
inactive: [1] 24.7 µM | [2] 18.2 µM | [3] 11.7 µM | [4] 16.9 µM | [5] 21.2 µM | [7] 17.5 µM | [8] 22.6 µM | [9] 24.7 µM | [10] 22.6 µM | [11] 19.5 µM | [12] 17.3 µM | [13] 18.2 µM | [14] 19.1 µM | [20] 13.6 µM | [15] 15.7 µM | [16] 17.9 µM | [17] 42.4 µM | [18] 18.3 µM

CN1CCCCC1CCN1c2ccccc2Sc2ccc([S+](C)[O-])cc21 (centres undefined) [MESORIDAZINE]
inactive: [1] > 100 µM | [3] > 100 µM | [4] > 100 µM | [5] > 100 µM | [6] > 100 µM | [7] > 100 µM | [8] > 100 µM | [9] > 100 µM | [10] > 100 µM | [11] > 100 µM | [12] > 100 µM | [13] > 100 µM | [14] > 100 µM | [20] > 100 µM | [15] > 100 µM | [16] > 100 µM | [17] > 100 µM | [18] > 100 µM | [19] > 100 µM
